Experiments:
[1] = biological target: T1, neutral/alkaline ceramidase (Pseudomonas aeruginosa, UniProt Q9I596); assay: Neutral/alkaline ceramidase activity inhibitory test; format: biochemical; details: enzyme liquid from Pseudomonas aeruginosa culture; C12-NBD Ceramide substrate; pH 8.5; 37° C., 2.5 hours; TLC fluorescence; read-out: neutral/alkaline ceramidase inhibitory activity in terms of IC50 (converted)
T1 construct: the culture liquid was sterilized through filtration; endogenous in cells; host or cells: Pseudomonas aeruginosa (human clinical isolate), sterile-filtered culture supernatant, not purified
T1 sequence (Q9I596 25-670): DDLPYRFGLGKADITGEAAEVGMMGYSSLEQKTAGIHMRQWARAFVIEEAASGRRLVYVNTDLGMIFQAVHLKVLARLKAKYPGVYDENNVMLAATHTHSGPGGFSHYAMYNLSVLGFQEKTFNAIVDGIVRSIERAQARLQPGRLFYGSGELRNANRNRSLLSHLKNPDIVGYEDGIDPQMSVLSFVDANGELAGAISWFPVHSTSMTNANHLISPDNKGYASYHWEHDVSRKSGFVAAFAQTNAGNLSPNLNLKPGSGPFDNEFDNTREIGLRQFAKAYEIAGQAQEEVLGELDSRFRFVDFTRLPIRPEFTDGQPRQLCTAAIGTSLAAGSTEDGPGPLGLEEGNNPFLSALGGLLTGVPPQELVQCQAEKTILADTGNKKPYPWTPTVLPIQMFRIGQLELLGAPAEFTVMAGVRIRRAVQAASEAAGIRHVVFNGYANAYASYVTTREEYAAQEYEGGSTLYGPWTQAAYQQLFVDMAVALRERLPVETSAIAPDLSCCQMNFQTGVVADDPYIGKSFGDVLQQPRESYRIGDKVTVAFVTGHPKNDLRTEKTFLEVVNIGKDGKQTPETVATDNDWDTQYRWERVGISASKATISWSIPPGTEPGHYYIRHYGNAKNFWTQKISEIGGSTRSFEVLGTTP
Protocol: A seed medium used was prepared as follows. Specifically, 3 g of Nissui Trypto-Soya Broth (product of Nissui Seiyaku) was dissolved in 100 mL of deionized water, and the resultant solution was dispensed into test tubes so that each test tube contained 3 mL of the solution, followed by high-pressure sterilization. Then, Pseudomonas aeruginosa (human clinical isolate) was inoculated into the seed medium in an amount of 2% by volume, and seed culturing was performed in a water bath at 37° C. and 100 rpm for 3 hours.
A synthetic medium for main culturing was prepared as follows. […]
Neutral/alkaline ceramidase activity was measured according to the method used by Okino et al. (J. Biol. Chem. 273, 14368-14373, 1998) with minor modifications. […]
The above solution (20 μL) was spotted onto a TLC plate (MERCK 25 TLC plates 20 cm×20 cm Silica gel 60 F254) and developed (chloroform:methanol ammonia (25%)=90:20:0.5, by volume). Subsequently, Image Reader FLA 5000 (product of FUJIFILM Corporation) was used to measure the fluorescence derived from the substrate, and Science Lab 2001 ImageGauge (product of FUJIFILM Corporation) was used to calculate the inhibitory rate of substrate decomposition.

[2] = tested on: NC/Nga mice; assay: Therapeutic effects on atopic dermatitis-like model mice (mast cell count in skin); format: in vivo
Excerpt: Atopic dermatitis-like model mice were used to test ceramidastin for the therapeutic effects on atopic dermatitis. Specifically, the above-obtained enzyme liquid was applied onto the mice to examine the aggravation degree of corneal layer of epidermis and inflammation. In addition, the enzyme liquid and ceramidastin were applied thereonto to examine the effects on the skin brought by inhibiting neutral/alkaline ceramidase activity.
The atopic dermatitis-like model mice used were 6-week-old NC/Nga female mice (product of Charles River). The above NC/Nga mice are used as an atopic dermatitis model (Hiroi et al. Jpn. J. Pharmacol. 76, 175-183, 1998) and have an increased number of mast cells in the skin tissue.
Hair was removed in advance from the 6-week-old NC/Nga female mice under anesthesia (six mice for each group). Subsequently, absorbent cotton impregnated with acetone-ether (1:1) was pressed for 15 sec against them under anesthesia by nembutal. […]
The procedure of the above defatting and applications of ceramidase and ceramidastin was repeated 47 times in total so that it was performed twice in the morning and evening for 5 days a week. […] The thus-formed tissue pieces were stained with toluidine blue, and the number of mast cells in the tissue was counted under a microscope.

CCCCCCC(O)C1C2=C(CC(C(O)C(O)C/C=C/CO)CC3=C(C(=O)OC3=O)C1O)C(=O)OC2=O (stereo not drawn) [ceramidastin]
IC50 [1]: 12 µM | number of mast cells in mouse skin pieces ([2]; NC/Nga female mice, defatting + ceramidase + 0.2 mL ceramidastin 1 mg/mL on skin, 47 times, toluidine blue, ceramidase-applied 22.6±8.5, untreated 13.04±4.38): 15.5±5.2 | effect on increase in the number of mast cells ([2]; ceramidase+ceramidastin-applied skin pieces vs ceramidase-applied skin pieces, NC/Nga mice): significantly inhibited
